# Reference: ChEMBL document CHEMBL1275339, “Anti-leishmanial and anti-trypanosomal activities of 1,4-dihydropyridines: In vitro evaluation and structure-activity relationship study” (Bioorg Med Chem, 2010)
# What was measured:
# [1] = Selectivity index, ratio of IC50 for rhesus monkey LLC-MK2 cells to IC50 for trypomastigotes of Trypanosoma cruzi; assay type: toxicity, cell-based; settings: read-out: Selectivity Index
# Leishmania chagasi [2] = assay: Antileishmanial activity against promastigotes of Leishmania chagasi MHOM/BR/1972/LD after 18 hrs by MTT assay; assay type: functional, organism-based
# [3] = Cytotoxicity in BALB/c mouse erythrocytes assessed as hemolysis at 50 uM after 3 hrs; assay type: cell-based; settings: erythrocyte
# Trypanosoma cruzi [4] = assay: Antitrypanosomal activity against trypomastigotes of Trypanosoma cruzi infected in rhesus monkey LLC-MK2 cells after 48 hrs by MTT assay; assay type: functional, organism-based; settings: LLC-MK2, 48 h
# LLC-MK2 = assay: Cytotoxicity against rhesus monkey LLC-MK2 cells after 48 hrs by MTT assay; assay type: cell-based, Macaca mulatta
# Leishmania braziliensis = assay: Antileishmanial activity against promastigotes of Leishmania braziliensis MHO/BR/75/M2903 after 18 hrs by MTT assay; assay type: functional, organism-based; settings: MHO/BR/75/M2903, 18 h
# Leishmania amazonensis = assay: Antileishmanial activity against promastigotes of Leishmania amazonensis WHO/BR/00/LT0016 after 18 hrs by MTT assay; assay type: functional, organism-based; settings: WHO/BR/00/LT0016, 18 h
# Leishmania major = assay: Antileishmanial activity against promastigotes of Leishmania major MHOM/1L/80/Fredlin after 18 hrs by MTT assay; assay type: functional, organism-based
# Leishmania chagasi [5] = assay: Antileishmanial activity against amastigotes of Leishmania chagasi MHOM/BR/1972/LD after 24 hrs by MTT assay; assay type: functional, organism-based
# [6] = Selectivity index, ratio of IC50 for rhesus monkey LLC-MK2 cells to IC50 for amastigotes of Leishmania chagasi MHOM/BR/1972/LD; assay type: toxicity, cell-based; settings: read-out: Selectivity Index
# Trypanosoma cruzi [7] = assay: Antitrypanosomal activity against epimastigotes of Trypanosoma cruzi; assay type: functional, organism-based
# [8] = Leishmania chagasi, MHOM/BR/1972/LD, 24 h
IC50 (Trypanosoma cruzi [4]) [µM],IC50 (Trypanosoma cruzi [7]) [µM],Compound,selectivity ratio [1],IC50 (Leishmania chagasi [2]) [µM],Activity [3],"IC50 (LLC-MK2; Macaca mulatta, LLC-MK2, 48 h) [µM]",IC50 (Leishmania braziliensis) [µM],IC50 (Leishmania amazonensis) [µM],IC50 (Leishmania major) [µM],IC50 (Leishmania chagasi [5]; [8]) [µM],selectivity ratio [6],IC50 (Leishmania chagasi [5]) [µM],IC50 (LLC-MK2; llc-mk2) [µM]
2.9,–,CC1=C(C(=O)OC(C)C)C(c2cccc([N+](=O)[O-])c2)C(C(=O)OC2CN(C(c3ccccc3)c3ccccc3)C2)=C(N)N1 (centres undefined) [AZELNIDIPINE],11.5,33.4,Non-toxic,33.5,13.7,20.5,17.1,–,–,–,–
32.3,–,COCCOC(=O)C1=C(C)NC(C)=C(C(=O)OC(C)C)C1c1cccc([N+](=O)[O-])c1 (centres undefined) [NIMODIPINE],2.98,82.7,Non-toxic,96.2,42.8,128,31,21.6,4.45,–,–
–,–,N=C(N)c1ccc(OCCCCCOc2ccc(C(=N)N)cc2)cc1 [PENTAMIDINE],–,1.11,Non-toxic,25.6,0.15,0.49,0.47,–,–,–,–
–,20.8,COC(=O)C1=C(C)NC(C)=C(C(=O)OC(C)C)C1c1cccc2nonc12 (centres undefined) [ISRADIPINE],–,–,Non-toxic,–,–,–,–,–,–,–,–
172,–,O=C(Cn1ccnc1[N+](=O)[O-])NCc1ccccc1 [BENZNIDAZOLE],–,–,Non-toxic,> 1370,–,–,–,–,–,–,–
–,–,MEGLUMINE ANTIMONATE,–,–,Non-toxic,–,–,–,–,–,–,82.3,> 1370
5.62,–,COCCOC(=O)C1=C(C)NC(C)=C(C(=O)OC/C=C/c2ccccc2)C1c1cccc([N+](=O)[O-])c1 (centres undefined) [CILNIDIPINE],39.4,33,Non-toxic,222,15.3,111,21.4,28.4,7.79,–,–
8.43,–,COC(=O)C1=C(C)NC(C)=C(C(=O)OC(C)(C)CN(C)CCC(c2ccccc2)c2ccccc2)C1c1cccc([N+](=O)[O-])c1 (centres undefined) [LERCANIDIPINE],51.6,19.2,Non-toxic,435,10.3,16.9,11.6,10.4,42,–,–
26.9,–,CCOC(=O)C1=C(C)NC(C)=C(C(=O)OC)C1c1cccc([N+](=O)[O-])c1 (centres undefined) [NITRENDIPINE],5.12,64.1,Non-toxic,138,39,38.3,33.3,43.8,3.14,–,–
–,33.5,CCOC(=O)C1=C(C)NC(C)=C(C(=O)OCC)C1c1ccccc1/C=C/C(=O)OC(C)(C)C [LACIDIPINE],–,–,Non-toxic,–,–,–,–,–,–,–,–
10.6,–,COC(=O)C1=C(C)NC(C)=C(C(=O)OCCN(C)Cc2ccccc2)C1c1cccc([N+](=O)[O-])c1 (centres undefined) [NICARDIPINE],6.76,35.7,Non-toxic,71.6,19.1,26.5,21.8,22,3.25,–,–

Compound,IC50 (Trypanosoma cruzi [4]) [µM],IC50 (Trypanosoma cruzi [7]) [µM],selectivity ratio [1],IC50 (Leishmania chagasi [2]) [µM],Activity [3],"IC50 (LLC-MK2; Macaca mulatta, LLC-MK2, 48 h) [µM]",IC50 (Leishmania braziliensis) [µM],IC50 (Leishmania amazonensis) [µM],IC50 (Leishmania major) [µM],IC50 (Leishmania chagasi [5]; [8]) [µM],selectivity ratio [6],IC50 (Leishmania chagasi [5]) [µM],IC50 (LLC-MK2; llc-mk2) [µM]
CCOC(=O)C1=C(COCCN)NC(C)=C(C(=O)OC)C1c1ccccc1Cl (centres undefined) [AMLODIPINE],8.07,–,8.77,2.61,Non-toxic,70.8,3.13,2.93,3.35,5.35,13.2,–,–
COC(=O)C1=C(C)NC(C)=C(C(=O)OC)C1c1ccccc1[N+](=O)[O-] [NIFEDIPINE],102,–,5.78,146,Non-toxic,589,95.7,118,181,176,4.21,–,–
